# Results as given in PubChem BioAssay AID1963871 (Molecular Pharmacology Branch, DTP, NCI, 2024).
# Test system: KRAS-mutant PDC multicell tumor spheroid viability
# Test: Anticancer human tumor 521955-158-R2-J5-PDC patient-derived pancreatic carcinoma cell line growth inhibition [KRAS2]
# Conditions: for IC50: curve of first compound; for viability, T/C: stronger effect = lower value
# Method in brief: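 KRAS-mutant tumor cells were grown as spheroids with HUVEC endothelial cells and human MSCs as stroma. Targeted agents were tested alone and with KRAS pathway inhibitors. Doses started at or near clinical Cmax, or 10 microM, descending half-log.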
# [1] = second compound 0.1 µM, first compound 0.000316 µM
# [2] = second compound 0.1 µM, first compound 0.001 µM
# [3] = second compound 0.1 µM, first compound 0.00316 µM
# [4] = second compound 0.1 µM, first compound 0.01 µM
# [5] = second compound 0.1 µM, first compound 0.0316 µM
# [6] = second compound 0.316 µM, first compound 0.000316 µM
# [7] = second compound 0.316 µM, first compound 0.001 µM
# [8] = second compound 0.316 µM, first compound 0.00316 µM
# [9] = second compound 0.316 µM, first compound 0.01 µM
# [10] = second compound 0.316 µM, first compound 0.0316 µM
# [11] = second compound 1 µM, first compound 0.000316 µM
# [12] = second compound 1 µM, first compound 0.001 µM
# [13] = second compound 1 µM, first compound 0.00316 µM
# [14] = second compound 1 µM, first compound 0.01 µM
# [15] = second compound 1 µM, first compound 0.0316 µM
# [16] = second compound 3.16 µM, first compound 0.000316 µM
# [17] = second compound 3.16 µM, first compound 0.001 µM
# [18] = second compound 3.16 µM, first compound 0.00316 µM
# [19] = second compound 3.16 µM, first compound 0.01 µM
# [20] = second compound 3.16 µM, first compound 0.0316 µM
# [21] = second compound 10 µM, first compound 0.000316 µM
# [22] = second compound 10 µM, first compound 0.001 µM
# [23] = second compound 10 µM, first compound 0.00316 µM
# [24] = second compound 10 µM, first compound 0.01 µM
# [25] = second compound 10 µM, first compound 0.0316 µM
# [26] = second compound 0.1 µM, first compound 0.1 µM
# [27] = second compound 0.316 µM, first compound 0.1 µM
# [28] = second compound 1 µM, first compound 0.1 µM
# [29] = second compound 3.16 µM, first compound 0.1 µM
# [30] = second compound 10 µM, first compound 0.1 µM
# [31] = second compound 0.1 µM, first compound 0.316 µM
# [32] = second compound 0.1 µM, first compound 1 µM
# [33] = second compound 0.1 µM, first compound 3.16 µM
# [34] = second compound 0.1 µM, first compound 10 µM
# [35] = second compound 0.316 µM, first compound 0.316 µM
# [36] = second compound 0.316 µM, first compound 1 µM
# [37] = second compound 0.316 µM, first compound 3.16 µM
# [38] = second compound 0.316 µM, first compound 10 µM
# [39] = second compound 1 µM, first compound 0.316 µM
# [40] = second compound 1 µM, first compound 1 µM
# [41] = second compound 1 µM, first compound 3.16 µM
# [42] = second compound 1 µM, first compound 10 µM
# [43] = second compound 3.16 µM, first compound 0.316 µM
# [44] = second compound 3.16 µM, first compound 1 µM
# [45] = second compound 3.16 µM, first compound 3.16 µM
# [46] = second compound 3.16 µM, first compound 10 µM
# [47] = second compound 10 µM, first compound 0.316 µM
# [48] = second compound 10 µM, first compound 1 µM
# [49] = second compound 10 µM, first compound 3.16 µM
# [50] = second compound 10 µM, first compound 10 µM
# 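Also: viability read after seven days of drug exposure.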
compound,measurement,setting,value
CC(=O)Nc1cccc(-n2c(=O)n(C3CC3)c(=O)c3c(Nc4ccc(I)cc4F)n(C)c(=O)c(C)c32)c1 + COc1cc2nc(C)nc(NC(C)c3cc(N)cc(C(F)(F)F)c3)c2cc1OC1CCOC1,IC50,second compound 0.1 µM,0.26 nM
same,IC50,second compound 0.316 µM,0.209 nM
same,IC50,second compound 1 µM,0.215 nM
same,IC50,second compound 3.16 µM,0.26 nM
same,IC50,second compound 10 µM,< 0.1 nM
same,"viability, T/C","second compound 0.1 µM, first compound 0.0001 µM",68.5%
same,"viability, T/C",[1],48%
same,"viability, T/C",[2],26.1%
same,"viability, T/C",[3],26.2%
same,"viability, T/C",[4],16.3%
same,"viability, T/C",[5],12.7%
same,"viability, T/C","second compound 0.316 µM, first compound 0.0001 µM",58.5%
same,"viability, T/C",[6],46.4%
same,"viability, T/C",[7],30.6%
same,"viability, T/C",[8],24.8%
same,"viability, T/C",[9],16.7%
same,"viability, T/C",[10],8.98%
same,"viability, T/C","second compound 1 µM, first compound 0.0001 µM",65.2%
same,"viability, T/C",[11],39.3%
same,"viability, T/C",[12],31.4%
same,"viability, T/C",[13],19.9%
same,"viability, T/C",[14],18.1%
same,"viability, T/C",[15],7.44%
same,"viability, T/C","second compound 3.16 µM, first compound 0.0001 µM",63.6%
same,"viability, T/C",[16],46.9%
same,"viability, T/C",[17],33.5%
same,"viability, T/C",[18],21.8%
same,"viability, T/C",[19],16.8%
same,"viability, T/C",[20],5.44%
same,"viability, T/C","second compound 10 µM, first compound 0.0001 µM",33%
same,"viability, T/C",[21],37.1%
same,"viability, T/C",[22],26.8%
same,"viability, T/C",[23],11.3%
same,"viability, T/C",[24],3.5%
same,"viability, T/C",[25],1.26%
CC(C)n1nc(-c2ccc3oc(N)nc3c2)c2c(N)ncnc21 + COc1cc2nc(C)nc(NC(C)c3cc(N)cc(C(F)(F)F)c3)c2cc1OC1CCOC1,IC50,second compound 0.1 µM,9.15 nM
same,IC50,second compound 0.316 µM,7.73 nM
same,IC50,second compound 1 µM,6.55 nM
same,IC50,second compound 3.16 µM,4.41 nM
same,IC50,second compound 10 µM,0.453 nM
same,"viability, T/C",[1],61.5%
same,"viability, T/C",[2],83.8%
same,"viability, T/C",[3],64.1%
same,"viability, T/C",[4],48.5%
same,"viability, T/C",[5],32.6%
same,"viability, T/C",[26],26%
same,"viability, T/C",[6],90.1%
same,"viability, T/C",[7],83.9%
same,"viability, T/C",[8],65.4%
same,"viability, T/C",[9],44.8%
same,"viability, T/C",[10],33.7%
same,"viability, T/C",[27],25.6%
same,"viability, T/C",[11],81%
same,"viability, T/C",[12],77.1%
same,"viability, T/C",[13],57.1%
same,"viability, T/C",[14],46.8%
same,"viability, T/C",[15],29.6%
same,"viability, T/C",[28],25.1%
same,"viability, T/C",[16],84.2%
same,"viability, T/C",[17],80.6%
same,"viability, T/C",[18],53.7%
same,"viability, T/C",[19],35.8%
same,"viability, T/C",[20],27.4%
same,"viability, T/C",[29],20.2%
same,"viability, T/C",[21],56.9%
same,"viability, T/C",[22],32.4%
same,"viability, T/C",[23],34.7%
same,"viability, T/C",[24],26.1%
same,"viability, T/C",[25],21.6%
same,"viability, T/C",[30],19%
COc1cc(Nc2ncc3c(n2)-c2ccc(Cl)cc2C(c2c(F)cccc2OC)=NC3)ccc1C(=O)O + COc1cc2nc(C)nc(NC(C)c3cc(N)cc(C(F)(F)F)c3)c2cc1OC1CCOC1,IC50,second compound 0.1 µM,< 31.6 nM
same,IC50,second compound 0.316 µM,< 31.6 nM
same,IC50,second compound 1 µM,< 31.6 nM
same,IC50,second compound 3.16 µM,< 31.6 nM
same,IC50,second compound 10 µM,< 31.6 nM
same,"viability, T/C",[5],40.5%
same,"viability, T/C",[26],35.1%
same,"viability, T/C",[31],41.5%
same,"viability, T/C",[32],37.5%
same,"viability, T/C",[33],37.2%
same,"viability, T/C",[34],33.2%
same,"viability, T/C",[10],45.3%
same,"viability, T/C",[27],38.4%
same,"viability, T/C",[35],40.7%
same,"viability, T/C",[36],36.7%
same,"viability, T/C",[37],37.3%
same,"viability, T/C",[38],34.6%
same,"viability, T/C",[15],46.9%
same,"viability, T/C",[28],35.4%
same,"viability, T/C",[39],39.4%
same,"viability, T/C",[40],40.5%
same,"viability, T/C",[41],33%
same,"viability, T/C",[42],34.2%
same,"viability, T/C",[20],38.5%
same,"viability, T/C",[29],32%
same,"viability, T/C",[43],32.5%
same,"viability, T/C",[44],33.7%
same,"viability, T/C",[45],30.1%
same,"viability, T/C",[46],31.6%
same,"viability, T/C",[25],11.7%
same,"viability, T/C",[30],2.43%
same,"viability, T/C",[47],2.29%
same,"viability, T/C",[48],2.71%
same,"viability, T/C",[49],10.7%
same,"viability, T/C",[50],2.59%
COc1cc2nccc(Oc3ccc(NC(=O)C4(C(=O)Nc5ccc(F)cc5)CC4)cc3)c2cc1OC + COc1cc2nc(C)nc(NC(C)c3cc(N)cc(C(F)(F)F)c3)c2cc1OC1CCOC1,IC50,second compound 0.1 µM,7430 nM
same,IC50,second compound 0.316 µM,7590 nM
same,IC50,second compound 1 µM,5580 nM
same,IC50,second compound 3.16 µM,3270 nM
same,IC50,second compound 10 µM,1470 nM
same,"viability, T/C",[5],93.7%
same,"viability, T/C",[26],99.6%
same,"viability, T/C",[31],88.6%
same,"viability, T/C",[32],95.1%
same,"viability, T/C",[33],85.6%
same,"viability, T/C",[34],37.4%
same,"viability, T/C",[10],99.7%
same,"viability, T/C",[27],98.1%
same,"viability, T/C",[35],88.6%
same,"viability, T/C",[36],88.9%
same,"viability, T/C",[37],83.6%
same,"viability, T/C",[38],39.5%
same,"viability, T/C",[15],89%
same,"viability, T/C",[28],96.1%
same,"viability, T/C",[39],96.6%
same,"viability, T/C",[40],90.1%
same,"viability, T/C",[41],72%
same,"viability, T/C",[42],27.5%
same,"viability, T/C",[20],100%
same,"viability, T/C",[29],96.8%
same,"viability, T/C",[43],101%
same,"viability, T/C",[44],105%
same,"viability, T/C",[45],51.2%
same,"viability, T/C",[46],6.41%
same,"viability, T/C",[25],93.4%
same,"viability, T/C",[30],73.2%
same,"viability, T/C",[47],67%
same,"viability, T/C",[48],74.8%
same,"viability, T/C",[49],0.78%
same,"viability, T/C",[50],0.24%
